Measurements: ChEMBL document CHEMBL3396974, “Synthetic approaches, functionalization and therapeutic potential of quinazoline and quinazolinone skeletons: the advances continue” (Eur J Med Chem, 2015)
≈ marks a conversion by molar mass, not a printed value.

Columns and labels:
[1] = Photocytotoxicity activity against human HL60 cells measured after UV irradiation; assay type: functional; settings: HL-60, light or radiation study
[2] = species: Mus musculus; experiment: Anticonvulsant activity in mouse assessed as protection against maximal electroshock-induced seizures; assay type: functional
[3] = Antiproliferative activity against human breast cancer cells; assay type: functional, cell-based; settings: Cancer cell lines
[4] = Antiproliferative activity against human lung cancer cells; assay type: functional, cell-based; settings: Cancer cell lines
[5] = Antiproliferative activity against human colon cancer cells; assay type: functional, cell-based; settings: Cancer cell lines
[6] = test system: Bacillus subtilis; experiment: Antibacterial activity against Bacillus subtilis; assay type: functional
[7] = molecular target: T1, Dihydrofolate reductase (Homo sapiens, UniProt P00374); experiment: Inhibition of DHFR (unknown origin)
T1 sequence (P00374 whole entry): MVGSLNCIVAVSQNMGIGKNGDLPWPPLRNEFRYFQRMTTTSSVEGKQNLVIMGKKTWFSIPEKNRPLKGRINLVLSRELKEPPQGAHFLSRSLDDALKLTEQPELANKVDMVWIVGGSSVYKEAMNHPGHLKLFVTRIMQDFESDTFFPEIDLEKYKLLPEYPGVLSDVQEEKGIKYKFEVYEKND

[8] = Cytotoxicity against human PC3 cells assessed as inhibition of cell growth; assay type: functional, cell-based; settings: PC-3
[9] = test system: Mycobacterium tuberculosis; experiment: Antimycobacterial activity against Mycobacterium tuberculosis H37Rv; assay type: functional
[10] = test system: Staphylococcus aureus; experiment: Antibacterial activity against Staphylococcus aureus assessed as zone of inhibition; assay type: functional
[11] = test system: Escherichia coli; experiment: Antibacterial activity against Escherichia coli assessed as zone of inhibition; assay type: functional
[12] = molecular target: Cathepsin B (Homo sapiens) (UniProt P07858); experiment: Inhibition of Cathepsin B (unknown origin) at 1 x 10^-4 M
[13] = molecular target: Cathepsin B (Homo sapiens) (UniProt P07858); experiment: Inhibition of Cathepsin B (unknown origin) at 0.1 x 10^-4 M
[14] = molecular target: T2, Pro-cathepsin H (Homo sapiens) (UniProt P09668); experiment: Inhibition of Cathepsin H (unknown origin) at 0.25 x 10^-4 M
T2 sequence (whole entry): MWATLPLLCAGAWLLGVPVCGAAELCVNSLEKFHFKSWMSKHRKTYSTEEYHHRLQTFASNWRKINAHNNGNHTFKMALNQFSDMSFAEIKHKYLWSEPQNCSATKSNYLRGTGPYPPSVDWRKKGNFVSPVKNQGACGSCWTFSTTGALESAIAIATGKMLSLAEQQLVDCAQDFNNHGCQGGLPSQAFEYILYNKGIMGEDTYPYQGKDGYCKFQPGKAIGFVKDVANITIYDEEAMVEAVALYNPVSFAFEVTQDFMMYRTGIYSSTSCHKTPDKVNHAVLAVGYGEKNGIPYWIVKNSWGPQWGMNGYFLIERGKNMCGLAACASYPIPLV

[15] = test system: Staphylococcus aureus; experiment: Antibacterial activity against methicillin-resistant Staphylococcus aureus; assay type: functional
[16] = test system: Candida albicans; experiment: Antifungal activity against Candida albicans MTCC 183; assay type: functional
[17] = test system: Staphylococcus aureus; experiment: Antibacterial activity against Staphylococcus aureus MTCC 96; assay type: functional
[18] = test system: Bacillus cereus; experiment: Antibacterial activity against Bacillus cereus MTCC 430; assay type: functional
[19] = test system: Bacillus cereus; experiment: Antibacterial activity against Bacillus cereus MTCC 430 assessed as zone of inhibition; assay type: functional
[20] = test system: Staphylococcus aureus; experiment: Antibacterial activity against Staphylococcus aureus MTCC 96 assessed as zone of inhibition; assay type: functional
[21] = test system: Klebsiella pneumoniae; experiment: Antibacterial activity against Klebsiella pneumoniae MTCC 109; assay type: functional
[22] = test system: Pseudomonas aeruginosa; experiment: Antibacterial activity against Pseudomonas aeruginosa MTCC 741; assay type: functional
[23] = test system: Klebsiella pneumoniae; experiment: Antibacterial activity against Klebsiella pneumoniae MTCC 109 assessed as zone of inhibition; assay type: functional
[24] = test system: Pseudomonas aeruginosa; experiment: Antibacterial activity against Pseudomonas aeruginosa MTCC 741 assessed as zone of inhibition; assay type: functional
[25] = molecular target: Epidermal growth factor receptor (Homo sapiens, UniProt P00533); experiment: Inhibition of EGFR (unknown origin)
[26] = molecular target: T2, Pro-cathepsin H (Homo sapiens); experiment: Inhibition of Cathepsin H (unknown origin) at 1 x 10^-4 M
[27] = molecular target: Cathepsin B (Homo sapiens) (UniProt P07858); experiment: Inhibition of Cathepsin B (unknown origin) at 0.50 x 10^-4 M
[28] = test system: Escherichia coli; experiment: Antibacterial activity against Escherichia coli MTCC 739; assay type: functional
[29] = test system: Saccharomyces cerevisiae; experiment: Antifungal activity against Saccharomyces cerevisiae; assay type: functional
[30] = Cytotoxicity against human CNE2 cells by MTT assay; assay type: functional, cell-based; settings: CNE-2
[31] = Cytotoxicity against human PC3 cells by MTT assay; assay type: functional, cell-based; settings: PC-3
[32] = test system: SMMC-7721; experiment: Cytotoxicity against human SMMC7721 cells by MTT assay; assay type: functional, cell-based
[33] = test system: HUVEC; experiment: Inhibition of cell adhesion in HUVEC at 15 uM after 3 hrs at 37 degC; assay type: functional; settings: Homo sapiens
[34] = test system: HUVEC; experiment: Inhibition of cell adhesion in HUVEC at 30 uM after 3 hrs at 37 degC; assay type: functional; settings: Homo sapiens

Sequence of Epidermal growth factor receptor (P00533 whole entry): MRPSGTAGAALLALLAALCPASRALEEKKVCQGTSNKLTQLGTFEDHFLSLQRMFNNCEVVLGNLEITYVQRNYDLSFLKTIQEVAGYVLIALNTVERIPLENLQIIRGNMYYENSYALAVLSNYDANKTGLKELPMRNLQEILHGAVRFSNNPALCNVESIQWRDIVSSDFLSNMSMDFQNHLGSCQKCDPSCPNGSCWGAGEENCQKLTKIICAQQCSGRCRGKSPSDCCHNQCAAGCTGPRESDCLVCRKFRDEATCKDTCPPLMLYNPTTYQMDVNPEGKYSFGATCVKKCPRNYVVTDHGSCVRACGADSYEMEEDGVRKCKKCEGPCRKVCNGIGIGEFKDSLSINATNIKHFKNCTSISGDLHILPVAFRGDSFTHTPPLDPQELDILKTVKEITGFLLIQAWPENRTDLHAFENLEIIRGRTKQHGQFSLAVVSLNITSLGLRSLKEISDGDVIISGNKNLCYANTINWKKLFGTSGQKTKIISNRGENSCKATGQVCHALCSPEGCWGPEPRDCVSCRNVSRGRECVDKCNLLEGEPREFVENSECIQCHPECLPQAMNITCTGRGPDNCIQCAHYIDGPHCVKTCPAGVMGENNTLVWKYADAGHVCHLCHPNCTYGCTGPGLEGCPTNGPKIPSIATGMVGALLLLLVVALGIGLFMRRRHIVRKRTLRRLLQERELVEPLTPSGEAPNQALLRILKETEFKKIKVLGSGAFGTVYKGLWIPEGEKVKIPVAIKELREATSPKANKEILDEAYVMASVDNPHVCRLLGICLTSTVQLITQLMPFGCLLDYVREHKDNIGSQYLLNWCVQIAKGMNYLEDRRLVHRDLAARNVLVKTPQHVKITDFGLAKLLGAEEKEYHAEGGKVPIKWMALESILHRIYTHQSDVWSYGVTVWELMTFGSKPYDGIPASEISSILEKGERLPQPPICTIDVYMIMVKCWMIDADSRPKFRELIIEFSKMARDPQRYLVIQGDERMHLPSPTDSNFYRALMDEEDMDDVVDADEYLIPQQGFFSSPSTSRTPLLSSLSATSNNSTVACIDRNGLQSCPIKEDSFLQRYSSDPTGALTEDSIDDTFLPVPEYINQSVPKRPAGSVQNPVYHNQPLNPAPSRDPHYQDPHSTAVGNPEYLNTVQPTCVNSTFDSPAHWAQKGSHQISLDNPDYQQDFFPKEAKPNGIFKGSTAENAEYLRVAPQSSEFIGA

For `CC1(C)CC(=O)C2=C(C1)N=C1Sc3ccccc3N1C2c1ccccc1C(F)(F)F` (centres undefined), the GI50 [1] was 900 nM.
For `COc1cc2nc(/C=C/c3ccccc3Cl)n(-c3ccccc3[N+](=O)[O-])c(=O)c2cc1OC`, the ED50 [2] was 98.2 µmol/kg.
For `O=c1c2ccccc2ncn1/N=C/c1ccc(O)c(O)c1O`, the IC50 [3] was 140 nM, the IC50 [4] was 79 nM and the IC50 [5] was 320 nM.
Work on `Cn1c(=O)n(CCOC(=O)CNC(=O)c2ccco2)c(=O)c2ccccc21` yielded an MIC [6] of 4 µg/mL (≈ 10.8 µM).
Molecule `COc1cc(/C=C2\CCCc3c2nc(N)nc3-c2cc(OC)c(OC)c(OC)c2)cc(OC)c1OC` has an IC50 [7] of 14 µM.
Molecule `CC[C@@]1(O)C(=O)OCc2c1cc1n(c2=O)Cc2cc3c(CN(C)C)c(O)ccc3nc2-1` [TOPOTECAN] has an IC50 [8] of less than 4 µM.
For `Cc1cccc(Oc2nc(-c3ccc(NC(=S)Nc4ccc(Br)cc4)cc3)nc3ccccc23)c1`, the “inhibition (INH)” value [9] was 99% and the MIC ([9]; Mycobacterium tuberculosis, H37Rv) was 12.5 µg/mL (≈ 23.1 µM).
For `Oc1ccc(/C=N/NC2=NC3=C(CCCC3)C(c3ccccc3)N2)cc1` (centres undefined), the “inhibition zone (IZ)” value [10] was 18 mm and the “inhibition zone (IZ)” value [11] was 17 mm.
For `O=C1NC2=C(CCC/C2=C\C=C\c2ccccc2)C(/C=C/c2ccccc2)N1` (centres undefined), the inhibition [12] was 100% and the inhibition [13] was 50%.
In the case of `CN(C)c1ccc(/C=C2\CCCC3=C2NC(=S)NC3c2ccc(N(C)C)cc2)cc1` (centres undefined), the inhibition [14] is reported as 100%.
Work on `CC1(C)CC(=O)C2=C(C1)N=C1Sc3ccccc3N1C2c1ccc(C(F)(F)F)cc1` (centres undefined) yielded a GI50 [1] of 900 nM.
Molecule `COc1cc2nc(/C=C/c3ccccc3Cl)n(-c3ccc([N+](=O)[O-])cc3)c(=O)c2cc1OC` has an ED50 [2] of 41.3 µmol/kg.
For `Cn1c(=O)n(CCOC(=O)CNC(=O)/C=C/c2ccccc2)c(=O)c2ccccc21`, the MIC [6] was 4 µg/mL (≈ 9.82 µM) and the MIC [15] was 4 µg/mL (≈ 9.82 µM).
Work on `COc1cc(/C=C2\CCCc3c2nc(C)nc3-c2cc(OC)c(OC)c(OC)c2)cc(OC)c1OC` yielded an IC50 [7] of 0.5 µM.
`Cc1cccc(Oc2nc(-c3ccc(NC(=O)Nc4ccc(Br)cc4)cc3)nc3ccccc23)c1` showed an MIC [16] of 12.5 µg/mL (≈ 23.8 µM), an MIC [17] of 6.25 µg/mL (≈ 11.9 µM) and an MIC [18] of 12.5 µg/mL (≈ 23.8 µM). The “inhibition zone (IZ)” value [19] was 26 mm, the “inhibition zone (IZ)” value [20] was 29 mm and the MIC [21] was 12.5 µg/mL (≈ 23.8 µM). The MIC [22] was 25 µg/mL (≈ 47.6 µM), the “inhibition zone (IZ)” value [23] was 27 mm and the “inhibition zone (IZ)” value [24] was 25 mm.
With `COc1cc2nc(/C=C/c3ccccc3Cl)n(-c3ccncc3)c(=O)c2cc1OC` the ED50 [2] was 66.4 µmol/kg.
Molecule `Cn1c(=O)n(CCOC(=O)CNC(=O)c2ccc([N+](=O)[O-])cc2)c(=O)c2ccccc21` has an MIC [15] of 4 µg/mL (≈ 9.38 µM).
`COc1ccc(/C=C2\CCCc3c2nc(N)nc3-c2ccc(OC)c(OC)c2)cc1OC` gave an IC50 [7] of 14 µM.
`COc1ccc(/C=C2\CCCc3c2nc(C)nc3-c2ccc(OC)c(OC)c2)cc1OC` showed an IC50 [7] of 0.1 µM.
With `Clc1cc(Nc2ncnc3ccc(NC4=NC[C@@H](COc5ccccc5)O4)cc23)ccc1OCc1nccs1` the IC50 [25] was 950 nM.
`CN(C)c1ccc(/C=C2\CCCC3=C2NC(=O)NC3c2ccc(N(C)C)cc2)cc1` (centres undefined) showed an inhibition [26] of 100%.
`CN[C@@H]1[C@H](O[C@H]2[C@H](O[C@H]3[C@H](O)[C@@H](O)[C@H](N=C(N)N)[C@@H](O)[C@@H]3N=C(N)N)O[C@@H](C)[C@]2(O)C=O)O[C@@H](CO)[C@H](O)[C@H]1O` [STREPTOMYCIN] showed an MIC [6] of 32 µg/mL (≈ 55 µM).
Work on `C[Se](=O)O` [METHYLSELENINIC ACID] yielded an IC50 [8] of less than 8.4 µM.
Work on `Clc1cc(Nc2ncnc3ccc(NC4=NC[C@H](COc5ccccc5)O4)cc23)ccc1OCc1nccs1` yielded an IC50 [25] of 1210 nM.
`S=C1NC2=C(CCC/C2=C\C=C\c2ccccc2)C(/C=C/c2ccccc2)N1` (centres undefined) showed an inhibition [27] of 100%.
`O=c1c2ccccc2nc(-c2ccc(Cl)cc2)n1Cc1ccccc1` showed an MIC [16] of 26.1 µg/mL (≈ 75.3 µM), an MIC [6] of 24.3 µg/mL (≈ 70.1 µM) and an MIC [17] of 25.6 µg/mL (≈ 73.8 µM). It also gave an MIC [22] of 30.1 µg/mL (≈ 86.8 µM), an MIC [28] of 25.1 µg/mL (≈ 72.4 µM) and an MIC [29] of 18.3 µg/mL (≈ 52.8 µM).
In the case of `COc1ccc(C(=O)NCC(=O)OCCn2c(=O)c3ccccc3n(C)c2=O)cc1`, the MIC [6] is reported as 4 µg/mL (≈ 9.72 µM).
For `COc1cc2nc(/C=C/c3ccccc3Cl)n(-c3ccc(Br)cc3)c(=O)c2cc1OC`, the ED50 [2] was 41.3 µmol/kg.
`CC1(C)CC(=O)C2=C(C1)N=C1Sc3ccccc3N1C2c1ccc(F)cc1` (centres undefined) gave a GI50 [1] of 900 nM.
Work on `Cn1c(=O)n(CCOC(=O)CNC(=O)c2ccc(F)cc2)c(=O)c2ccccc21` yielded an MIC [15] of 4 µg/mL (≈ 10 µM).
`CN(C)CCCNc1nc(-c2ccccc2NC(=O)CCN2CCN(C)CC2)nc2ccccc12` gave an IC50 [30] of 9.3 µM, an IC50 [31] of 9.8 µM and an IC50 [32] of 10.9 µM. It also gave an inhibition at 15 µM [33] of 65.8% and an inhibition at 30 µM [34] of 71.2%.
